Results as given in patent US8110543B2, “Anti-invasive and anti-angiogenic compositions” (Angstrom Pharmaceuticals, Inc., priority 1997, dated 2012).

Legend:
U87 tumors = test: U87 glioblastoma orthotopic model; type: in vivo, mice; settings: tumor sections, mouse-CD31 immunostaining
Method: U87 cells were inoculated into the ventricles of nude mice and treatment was initiated 72 hrs after inoculation. Tumor volume was determined using caliper measurements after euthanasia and necropsy.
A: Control; B: Å6 only; C: CDDP only; D: Å6+CDDP.
U87 tumors were surgically inoculated into the cerebral ventricles of mice. The animals were allowed to recover for 72 hours at which time treatment with Å6 (75 mg/kg/day IP bid), CDDP (3 mg/kg/day given every other day from day 4×6 administrations), or a combination of Å6+CDDP was initiated,
Animals were treated for 21 days at which time they were euthanized and their brains evaluated for the presence of tumor. Transverse sections were stained with hematoxylin and eosin (H&E).
Tumor sections were also evaluated for microvessel density using antibodies specific for mouse-CD31 in immunostaining. Very few CD31^+ foci were evident in animals treated with the combination of Å6+CDDP.
Tumors were established as in the previous section, and the same therapeutic regimens were employed. Treatment was discontinued at day 21, and survival was measured. Control animals appeared moribund around day 25 and all of the animals in this group were dead by day 30.

[1] = design: species or system mice; settings: mouse, in vivo
Method: CDDP was tested at a dose of 3 mg/kg/day given every other day from day 4×6 administrations, which converts to approximately 6 mg/m^2 per administration. This is a substantially lower dose than that typically given to human patients (20-40 mg/m^2 for most tumors although doses as high as 200 mg/m^2 have been reported in neuroblastomas; the dose depends on the regimen used) since dose limiting toxicity (as exemplified by weight loss) occurs in mice at doses greater than 6 mg/m^2.

[NH2][Pt]([NH2])([Cl])[Cl] [CDDP, cisplatin, reference compound]
microvessel density (CD31+ foci), angiogenesis (U87 tumors): inhibited angiogenesis to some extent
dose at which dose limiting toxicity (weight loss) occurs [1]: greater than 6 mg/m^2
